The source made the active and inactive calls. The rule behind the calls is not given here.
Columns and labels:
RAW264.7 [1] = assay: Anti-inflammatory activity in mouse RAW264.7 cells assessed as inhibition of TNFalpha production at 10 uM preincubated for 30 mins followed by 0.5 ug/ml LPS addition after 24 hrs by ELISA; type: functional
RAW264.7 [2] = assay: Anti-inflammatory activity in mouse RAW264.7 cells assessed as inhibition of IL-6 production at 10 uM preincubated for 30 mins followed by 0.5 ug/ml LPS addition after 24 hrs by ELISA; type: functional
[3] = Cytotoxicity against human HL-7702 cells assessed as cell viability at 10 uM after 24 hrs by MTT assay; type: cell-based; details: l02, 24 h
RAW264.7 [4] = assay: Anti-inflammatory activity in mouse RAW264.7 cells assessed as inhibition of IL-6 production preincubated for 30 mins followed by 0.5 ug/ml LPS addition after 24 hrs by ELISA; type: functional, cell-based
RAW264.7 [5] = assay: Anti-inflammatory activity in mouse RAW264.7 cells assessed as inhibition of TNFalpha production preincubated for 30 mins followed by 0.5 ug/ml LPS addition after 24 hrs by ELISA; type: functional, cell-based
Rattus norvegicus [6] = assay: Anti-inflammatory activity in Sprague-Dawley rat assessed as decrease in LPS-induced TNFalpha mRNA expression at 20 mg/kg/day, po for 7 days pre-treated before LPS challenge by real-time qPCR analysis; type: functional
Rattus norvegicus [7] = assay: Anti-inflammatory activity in Sprague-Dawley rat assessed as decrease in LPS- induced wet/dry ratio of lung tissue at 20 mg/kg/day, po for 7 days pre-treated before LPS challenge and measured 6 hrs after LPS challenge; type: functional, organism-based
Rattus norvegicus [8] = assay: Anti-inflammatory activity in Sprague-Dawley rat assessed as decrease in LPS- induced amount of TNFalpha in BALF at 20 mg/kg/day, po for 7 days pre-treated before LPS challenge and measured 6 hrs after LPS challenge by ELISA; type: functional, organism-based
Rattus norvegicus [9] = assay: Anti-inflammatory activity in Sprague-Dawley rat assessed as decrease in LPS-induced IL1beta mRNA expression at 20 mg/kg/day, po for 7 days pre-treated before LPS challenge by real-time qPCR analysis; type: functional
Rattus norvegicus [10] = assay: Anti-inflammatory activity in Sprague-Dawley rat assessed as decrease in LPS-induced IL6 mRNA expression at 20 mg/kg/day, po for 7 days pre-treated before LPS challenge by real-time qPCR analysis; type: functional
BEAS-2B [11] = assay: Anti-inflammatory activity in human BEAS2B cells assessed as inhibition of LPS-induced TNFalpha mRNA expression by real-time qPCR analysis; type: functional; parameters: scale not given: the % may be the effect or the level left
Rattus norvegicus [12] = assay: Anti-inflammatory activity in Sprague-Dawley rat assessed as decrease in LPS- induced elevation of BALF protein concentration at 20 mg/kg/day, po for 7 days pre-treated before LPS challenge and measured 6 hrs after LPS challenge; type: functional, organism-based
Rattus norvegicus [13] = assay: Anti-inflammatory activity in Sprague-Dawley rat assessed as decrease in LPS-induced ICAM1 mRNA expression at 20 mg/kg/day, po for 7 days pre-treated before LPS challenge by real-time qPCR analysis; type: functional
Rattus norvegicus [14] = assay: Anti-inflammatory activity in Sprague-Dawley rat assessed as decrease in LPS- induced number of neutrophils in BALF at 20 mg/kg/day, po for 7 days pre-treated before LPS challenge and measured 6 hrs after LPS challenge by Wright-Giemsa staining method; type: functional, organism-based
BEAS-2B [15] = assay: Anti-inflammatory activity in human BEAS2B cells assessed as inhibition of LPS-induced COX2 mRNA expression by real-time qPCR analysis; type: functional; parameters: scale not given: the % may be the effect or the level left
Rattus norvegicus [16] = assay: Anti-inflammatory activity in Sprague-Dawley rat assessed as decrease in LPS-induced VCAM1 mRNA expression at 20 mg/kg/day, po for 7 days pre-treated before LPS challenge by real-time qPCR analysis; type: functional
BEAS-2B [17] = assay: Anti-inflammatory activity in human BEAS2B cells assessed as inhibition of LPS-induced IL1beta mRNA expression by real-time qPCR analysis; type: functional; parameters: scale not given: the % may be the effect or the level left
Rattus norvegicus [18] = assay: Anti-inflammatory activity in Sprague-Dawley rat assessed as decrease in LPS-induced COX2 mRNA expression at 20 mg/kg/day, po for 7 days pre-treated before LPS challenge by real-time qPCR analysis; type: functional
BEAS-2B [19] = assay: Anti-inflammatory activity in human BEAS2B cells assessed as inhibition of LPS-induced IL6 mRNA expression by real-time qPCR analysis; type: functional; parameters: scale not given: the % may be the effect or the level left
Rattus norvegicus [20] = assay: Anti-inflammatory activity in Sprague-Dawley rat assessed as reduction in LPS-induced histopathological changes at 20 mg/kg/day, po for 7 days pre-treated before LPS challenge and measured 6 hrs after LPS challenge by light microscopic analysis; type: functional, organism-based

Compound | inhibition (RAW264.7 [1]) | inhibition (RAW264.7 [2]) | Activity [3] | further results
COc1cc(/C=C2\CCC/C(=C\c3c(F)cccc3F)C2=O)ccc1O | Active | Active | Non-toxic | –
COc1cc(/C=C2\CCC/C(=C\c3cccc(OC)c3OC)C2=O)ccc1O | Active | Active | Non-toxic | –
COc1cc(/C=C2\CCC/C(=C\c3ccc(F)c(F)c3)C2=O)ccc1O | Active | Active | Non-toxic | –
COc1cc(/C=C2\CCC/C(=C\c3ccc(O)c(Br)c3)C2=O)ccc1O | – | – | Non-toxic | inhibition (RAW264.7 [4]): Dose-dependent effect; inhibition (INH) (RAW264.7 [1]): >50%; inhibition (RAW264.7 [5]): Dose-dependent effect; inhibition (INH) (RAW264.7 [2]): >50%
COc1cc(/C=C2\CCC/C(=C\c3ccc(O)cc3)C2=O)ccc1O | Active | Active | Non-toxic | –
COc1cc(/C=C2\CCC/C(=C\c3cc4c(cc3Br)OCO4)C2=O)ccc1O | Active | Active | Non-toxic | –
COc1cc(/C=C2\CC/C(=C\c3cc(C)ccc3C)C2=O)ccc1O | – | – | Non-toxic | inhibition (RAW264.7 [4]): Dose-dependent effect; inhibition (INH) (RAW264.7 [1]): >50%; inhibition (RAW264.7 [5]): Dose-dependent effect; inhibition (INH) (RAW264.7 [2]): >50%
COc1cc(/C=C2\CC/C(=C\c3c[nH]c4ncccc34)C2=O)ccc1O | Active | Active | Non-toxic | –
COc1cc(/C=C2\CCC/C(=C\c3ccc4ccccc4c3)C2=O)ccc1O | Active | Active | Non-toxic | –
COc1cc(/C=C2\CCC/C(=C\c3ccccc3F)C2=O)ccc1O | Active | Active | Non-toxic | –
COc1cc(/C=C2\CCC/C(=C\c3cc(OC)c(OC)c(OC)c3)C2=O)ccc1O | Active | Active | Non-toxic | –
COc1cc(/C=C2\CCC/C(=C\c3cccc(OC)c3O)C2=O)ccc1O | Active | Active | Non-toxic | –
COc1cc(/C=C2\CCC/C(=C\c3ccc(O)c(O)c3)C2=O)ccc1O | Active | Active | Non-toxic | –
COc1cc(/C=C2\CC/C(=C\c3c[nH]c4ccc(Br)cc34)C2=O)ccc1O | – | – | Non-toxic | inhibition in vivo at 20 mg/kg/day (Rattus norvegicus [6]): 38.4%; Activity (Rattus norvegicus [7]): Active; Activity (Rattus norvegicus [8]): Active; inhibition in vivo at 20 mg/kg/day (Rattus norvegicus [9]): 39.2%; inhibition in vivo at 20 mg/kg/day (Rattus norvegicus [10]): 92.9%; Activity (BEAS-2B [11]): 64.5%; inhibition (RAW264.7 [4]): Dose-dependent effect; Activity (Rattus norvegicus [12]): Active; inhibition in vivo at 20 mg/kg/day (Rattus norvegicus [13]): 74.1%; inhibition (INH) (RAW264.7 [1]): >50%; Activity (Rattus norvegicus [14]): Active; Activity (BEAS-2B [15]): 64.9%; inhibition (RAW264.7 [5]): Dose-dependent effect; inhibition (INH) (RAW264.7 [2]): >50%; inhibition in vivo at 20 mg/kg/day (Rattus norvegicus [16]): 52.9%; Activity (BEAS-2B [17]): 55.6%; inhibition in vivo at 20 mg/kg/day (Rattus norvegicus [18]): 77.3%; Activity (BEAS-2B [19]): 30%; Activity (Rattus norvegicus [20]): Active
COc1cc(/C=C2\CCC/C(=C\c3cc(Br)c(O)c(Br)c3)C2=O)ccc1O | Active | Active | Non-toxic | –
COc1cc(/C=C2\CCC/C(=C\c3ccc(Cl)cc3Cl)C2=O)ccc1O | Active | Active | Non-toxic | –
COc1cc(/C=C2\CCC/C(=C\c3ccc(F)c(Br)c3)C2=O)ccc1O | Active | Active | Non-toxic | –
COc1cc(/C=C2\CC/C(=C\c3cc4ccccc4[nH]3)C2=O)ccc1O | – | – | Non-toxic | inhibition (INH) (RAW264.7 [1]): >50%; inhibition (INH) (RAW264.7 [2]): >50%

From ChEMBL document CHEMBL3751769, “Design, synthesis, and evaluation of semi-conservative mono-carbonyl analogs of curcumin as anti-inflammatory agents against lipopolysaccharide-induced acute lung injury” (Medchemcomm, 2015)
